Among the data in a melting point compilation (Tetko et al.) are melting point values, retold here.

The melting point is the temperature, or range, at which the solid turns liquid. Take `Nc1nc(Cl)c(Cl)c(N)c1Cl`: the melting point lay in the range of 206 to 208 °C.

Take `Cc1cc(C#N)ccc1-n1cncn1`: the melting point was in the range of 139 to 141 °C. For the molecule `NCc1cccc(S(=O)(=O)NCc2cccc(F)c2)c1`, the melting point was 101 to 103 °C.

In turn, `N#Cc1cccn2ccnc12` came in with a melting point of 169 to 171 °C.

On to `C#Cc1cccc(NCC(=O)N2CCOCC2)c1`, for which the melting point lay within 185 to 187 °C.

For the molecule `N#Cc1cc(N)c(Cl)c([N+](=O)[O-])c1`, the melting point is 205 to 207 °C. `NC(=O)CCc1ccc(C(=O)CCl)cc1` returned a melting point of 139 to 141 °C. In turn, `CCC(=O)Nc1ccc(Cl)c(N)c1` came in with a melting point of 105 to 107 °C. The result for `CC1CCC(C(C)C)C(OC(=O)CSc2ccccc2C(=O)O)C1` (centres undefined) reads 137 to 139 °C; that for `O=C1CC(C(=O)O)c2ccc(F)cc2N1` (centres undefined), 214 to 216 °C; that for `O=C(O)c1cc(F)c(F)cc1I`, 127 to 129 °C.

`Cn1cc(Br)c2cc[nH]c(=O)c21` returned a melting point of 195 to 197 °C. Regarding `Cc1cc(O)cc(C(=O)O)c1`, the melting point lay in the range of 205 to 207 °C. The molecule `O=C(c1cccs1)c1cccc2ccccc12` returned a melting point of 65 to 67 °C.

As to `c1ccc2c(c1)NCCCS2`, the melting point lay within 22 to 24 °C. `Nc1nc2ccccc2n2nnnc12` came in with a melting point of 289 to 291 °C. In turn, `O=Cc1sc(N2CCOCC2)nc1-c1ccccc1` had a melting point of 181 to 183 °C. To `Nc1nnc(N)s1` belongs 192 to 194 °C; to `O[C@@H]1CCCOc2ccccc21`, 89 to 91 °C; to `CCC(C)(C)NS(=O)(=O)c1ccc(Cl)nc1`, 86 to 88 °C. Regarding `O=S(=O)(Nc1ccc(O)cc1)c1ccccc1`, the melting point lay in the range of 156 to 158 °C.

For `N#Cc1nnc2ccccc2c1N`, the melting point was 319 to 321 °C. Molecule `Sc1nc2ncccn2n1` displayed a melting point of 234 to 236 °C.

Consider `O=C(O)C1CN(C(=O)c2ccco2)c2ccccc2O1` (centres undefined), for which the melting point was 154 to 156 °C.

In turn, `O=C1c2ccccc2C(=O)N1CC1CO1` (centres undefined) yielded a melting point of 98 to 100 °C. To `Nc1ccn(Cc2ccncc2)n1` belongs 122 to 124 °C. In the case of `CNC(C(=O)O)c1ccccc1C(F)(F)F` (centres undefined), the melting point lay within 290 to 292 °C. Molecule `Brc1ccc(NCc2cccnc2)cc1` came in with a melting point of 88 to 90 °C.

As for `OCCN1CCN(Cc2ccsc2)CC1`, the melting point fell in the range of 68 to 70 °C. The molecule `N#Cc1ccc(COc2ccccc2F)cc1` gave a melting point of 68 to 70 °C. Regarding `CCOC(=O)C(=O)c1nccn1C`, the melting point fell in the range of 52 to 54 °C. Take `NS(=O)(=O)c1ccc(S(=O)(=O)Cl)cc1`: the melting point was 144 to 146 °C.

`N#CCCn1cc(C(=O)CCl)c2ccccc21` gave a melting point of 138 to 140 °C. `Nc1cc2c(cc1N)OCC(=O)N2` gave a melting point of 252 to 254 °C. Molecule `COc1cc2c(cc1OC)CN(C(N)=O)CC2` displayed a melting point of 198 to 200 °C.

On to `O=C(O)CCCc1ccc2[nH]c(=O)[nH]c2c1`, for which the melting point fell in the range of 244 to 246 °C. In turn, `O=C(O)CC(O)(c1nc2ccccc2o1)C(F)(F)F` (centres undefined) displayed a melting point of 194 to 196 °C. On to `Nc1nc(C(F)(F)F)no1`, for which the melting point lay in the range of 97 to 99 °C.

Consider `O=C(O)CNC(=O)c1cc2c(s1)CCCC2`, for which the melting point is 177 to 179 °C. With `CCNS(=O)(=O)c1c[nH]c(C(=O)O)c1`, the melting point is 183 to 185 °C.

On to `O=S(=O)(c1ccc(S)nc1)N1CCOCC1`, for which the melting point was in the range of 71 to 73 °C. Regarding `COC(=O)C1CCc2ccccc2C1=O` (centres undefined), the melting point is 71 to 73 °C.

`Nc1ccnc(Oc2ccccc2Br)c1` came in with a melting point of 108 to 110 °C.

Consider `NC(N=O)=C1NC=Cc2ccccc21`, for which the melting point was 125 to 127 °C.

For `Cc1c(C(=O)O)sc2ncn(C)c(=O)c12`, the melting point lay within 215 to 217 °C.

For `Sc1n[nH]c(C2CC2)n1`, the melting point was in the range of 235 to 237 °C. `CN(C)C(=O)Nc1cccc(C(=O)O)c1` returned a melting point of 209 to 211 °C. Turning to `CN(C(=O)c1ccc(Br)o1)c1ccccc1C(=O)O`, the melting point fell in the range of 167 to 169 °C. In turn, `O=C(O)c1cccc(Oc2cnccn2)c1` returned a melting point of 112 to 114 °C.

As to `N#Cc1c(F)cccc1S(=O)(=O)Cl`, the melting point is 63 to 65 °C.

Molecule `COc1ccc(C(=O)O)cc1S(=O)(=O)Cl` showed a melting point of 153 to 155 °C. As to `Cc1cn(-c2ccccc2Cl)nc1C(=O)O`, the melting point is 209 to 211 °C. `NNC(=O)CCc1cccnc1` returned a melting point of 92 to 94 °C. On to `Brc1nn2cc(-c3cccnc3)nc2s1`, for which the melting point lay in the range of 230 to 232 °C.

Take `O=C(O)c1ccc(NC(=O)c2ccc(Br)o2)cc1`: the melting point was 276 to 278 °C.

Molecule `COc1c(Cl)cc(C(=O)O)cc1Cl` registered a melting point of 152 to 154 °C.

Molecule `Sc1nc2cc(Cl)cnc2[nH]1` gave a melting point of 352 to 354 °C.

The molecule `O=C(O)c1cc(S(=O)(=O)NCCN2CCCC2)ccc1Cl` came in with a melting point of 279 to 281 °C. The result for `OC(c1c(F)cncc1Br)C1CCCCC1` (centres undefined) reads 76 to 78 °C; that for `CC1=NS(=O)(=O)NC(C)=C1CC(=O)O`, 185 to 187 °C. `N#Cc1cccc(OCC(=O)NC2CC2)c1`: the melting point lay in the range of 106 to 108 °C. In turn, `Cc1ccc(S(=O)(=O)Nc2ccc(N)cc2)cc1` had a melting point of 183 to 185 °C. To `O=C(O)c1cccc(S(=O)(=O)NC2CCOC2=O)c1` (centres undefined) belongs 220 to 222 °C; to `CN(C)c1ccc(C(=O)O)cn1`, 225 to 227 °C; to `O=C(O)CNC(=O)c1ccc2c(c1)OCO2`, 158 to 160 °C. The molecule `Cc1cc(C(=O)O)c(C)s1` returned a melting point of 114 to 116 °C.

`CS(=O)(=O)Nc1ccc(N)cc1Br` displayed a melting point of 146 to 148 °C. For the molecule `Cc1cc(-c2nccn2Cc2ccccc2)c(=O)[nH]n1`, the melting point fell in the range of 215 to 217 °C. In the case of `Cc1cc(N(C)C)ccc1C#N`, the melting point was 59 to 61 °C. With `CCOC(=O)C(=O)NN`, the melting point lay in the range of 39 to 41 °C. Take `Nc1cc(F)c(I)c(F)c1`: the melting point is 113 to 115 °C. The result for `COC(=O)c1sccc1S(N)(=O)=O` reads 120 to 122 °C. Consider `CC1CC(C)(C)CC2(C1)NC(=O)NC2=O` (centres undefined), for which the melting point is 273 to 275 °C. For the molecule `COCCNc1ccc(S(C)(=O)=O)cc1N`, the melting point is 144 to 146 °C. Take `CC(C)C(Br)C(=O)NCc1ccccc1F` (centres undefined): the melting point was in the range of 104 to 106 °C.

`N#CCC1=NCCN1` gave a melting point of 84 to 86 °C. In turn, `NC(Cc1cccnc1)=NO` registered a melting point of 149 to 151 °C. Consider `CC(NO)c1ccccc1` (centres undefined), for which the melting point is 73 to 75 °C.

Consider `O=C(O)CNC(=O)NCc1ccc([N+](=O)[O-])cc1`, for which the melting point lay within 166 to 168 °C. Regarding `CCn1c(CCl)nc2c(F)cccc21`, the melting point was 115 to 117 °C. The result for `COC(=O)c1cc(S(N)(=O)=O)ccc1O` reads 136 to 138 °C; that for `Cc1cc(C=O)cc(C)c1OC(F)F`, 56 to 58 °C; that for `O=C(O)CCc1cccc([N+](=O)[O-])c1`, 111 to 113 °C. With `CCCSc1ccc([N+](=O)[O-])c(N)c1`, the melting point lay in the range of 71 to 74 °C. The result for `O=C(O)COc1ccc(Oc2ccccc2)cc1` reads 127 to 129 °C. The molecule `O=c1[nH]c2cc(F)ccc2c(=O)o1` displayed a melting point of 240 to 242 °C. The molecule `COc1cc(N)c(C(=O)O)cc1OC(F)F` displayed a melting point of 168 to 170 °C.

Molecule `CCOC(=O)c1sc2nc(C)nc(Cl)c2c1C` registered a melting point of 145 to 147 °C. For the molecule `O=C(NC1CC1)C(Cl)c1ccc(F)cc1` (centres undefined), the melting point lay in the range of 135 to 137 °C. To `Fc1ccc(NCc2ccccn2)cc1` belongs 71 to 73 °C; to `CN(C)S(N)(=O)=O`, 94 to 96 °C; to `Nc1ccc(Oc2ccc(Cl)cc2)nc1`, 89 to 91 °C. Regarding `NC(=O)C1CNCCO1` (centres undefined), the melting point is 158 to 160 °C. Molecule `O=Cc1cncc2ccccc12` yielded a melting point of 103 to 105 °C. In turn, `Cc1nn(-c2ccc(F)cc2F)c(C)c1C(=O)O` registered a melting point of 229 to 231 °C. As to `OCc1ccc(-n2ccnc2)nc1`, the melting point was in the range of 128 to 130 °C. To `Nc1cccc(OCc2cccnc2)c1` belongs 97 to 99 °C. To `N#Cc1cc(Cl)ccc1Oc1cccc(C(=O)O)c1` belongs 211 to 213 °C; to `Cn1c(=O)n(C)c2cc(N)ccc21`, 148 to 150 °C; to `N#Cc1ccccc1Oc1ccccc1C(=O)O`, 147 to 149 °C. Regarding `Cc1cc(C)c2ncc(C#N)c(Cl)c2c1`, the melting point lay within 141 to 143 °C. `Nn1c(S)nnc1-c1ccco1` registered a melting point of 207 to 209 °C. The result for `N#Cc1ccc(CSCC(=O)O)cc1` reads 86 to 88 °C; that for `Cc1ccc(NC(=S)NN)cc1C`, 176 to 178 °C; that for `CSC(C(=O)O)C(C)(C)C` (centres undefined), 83 to 85 °C.

As for `COCCOc1cc2c(cc1C=O)OCO2`, the melting point was in the range of 84 to 86 °C. The result for `O=C(O)C1CCCc2sccc21` (centres undefined) reads 79 to 81 °C; that for `COC(=O)c1ccc(C)c(S(=O)(=O)Cl)c1`, 45 to 47 °C. For the molecule `Nc1ccc2nc(Cc3ccccc3)oc2c1`, the melting point is 104 to 106 °C. To `Cc1cccn2cc(CC(N)=S)nc12` belongs 153 to 155 °C; to `Nc1ccc(NC(=O)c2ccccc2)cc1C(F)(F)F`, 130 to 132 °C; to `O=C(NCCCl)OCC(F)(F)F`, 31 to 33 °C. `Cc1nn(CCC(=O)O)c(C)c1[N+](=O)[O-]`: the melting point fell in the range of 116 to 118 °C. The result for `CCOC(=O)C(=O)c1nc2ccccc2n1C` reads 116 to 118 °C; that for `O=C(CCl)NCCc1cccc2ccccc12`, 104 to 106 °C. To `COc1cc(C=O)ccc1OCC(=O)N1CCCC1` belongs 117 to 119 °C.

In turn, `CC(C)C(CN)C(=O)O` (centres undefined) came in with a melting point of 249 to 251 °C. The molecule `c1cnc2c(c1)CCN2` came in with a melting point of 79 to 81 °C. Molecule `O=C(O)c1cn(Cc2ccccc2)nc1-c1ccc(Cl)cc1` showed a melting point of 162 to 165 °C. `O=C(CCl)NCC(=O)Nc1ccc(F)c(F)c1F`: the melting point lay in the range of 160 to 162 °C. With `COc1ccc2c(c1)C(=O)CCN2`, the melting point fell in the range of 114 to 116 °C. To `COC(=O)c1sc(-c2ccccc2)cc1O` belongs 94 to 96 °C; to `COc1cc(C(C)N)ccc1OCCO` (centres undefined), 103 to 105 °C. `Cc1nn(C(C)(C)C)c(C)c1N` gave a melting point of 54 to 56 °C.
